Reference: article PMC8764113 (Nature Communications, 2022)
Like-named read-outs stand apart in the source and are kept apart here.

Legend:
[1] = target: 2-(2-phenylethyl)chromone precursor synthase (PECPS), wild type, recombinant (Aquilaria sinensis); assay: SEC; purified recombinant PECPS; approximately 86 kDa against a calculated 43 kDa for the monomer (Supplementary Fig. 4b); column and buffer of this run not told
[2] = tested on: wild type N. benthamiana leaves; assay: Infiltration of C6-C5-C6 substrates into wild type N. benthamiana leaves, LC-MS; type: in vivo, Nicotiana benthamiana
PECPS = assay: Standard PECPS enzyme reaction, acceptance of starter-CoA; type: biochemical, Aquilaria sinensis; settings: condensation with 4-hydroxyphenylpropionyl-β-diketide acid
Method: The standard reaction mixture contained 26 nmol of starter-CoA (4-hydroxyphenylpropionyl-CoA/benzoyl-CoA/phenylpropionyl-CoA/2-hydroxybenzoyl-CoA/3-hydroxybenzoyl-CoA/4-hydroxybenzoyl-CoA), 29 nmol of malonyl-CoA/benzoyl-β-diketide acid/4-hydroxyphenylpropionyl-β-diketide acid (note: before β-diketide acids were added to the reaction buffer, they were first dissolved in dimethyl sulfoxide to a final concentration of 2.9 mM), and 0.4 nmol of the purified recombinant enzyme, in 100 mM KPB (pH 7.5) for a final volume of 500 μL. Incubations were performed at 37 °C for 12 h and terminated by the addition of 20 μL of 20% HCl. The reaction solution was then extracted three times with 800 μL of ethyl acetate. The organic layers were combined, evaporated to dryness with nitrogen, and dissolved in 50 μL of MeOH for LCMS-IT-TOF (Shimadzu, Japan) analysis. The HPLC was equipped with an Agilent Eclipse XDB C18 column (250 × 4.6 mm I.D., 5 μm) and eluted at a flow rate of 1.0 mL/min. For the standard assay, gradient elution was performed with H2O and acetonitrile: 0–10 min, 30% acetonitrile; 10–20 min, 30–60% acetonitrile; 20–25 min, 60–70% acetonitrile; 25–30 min, 70–80% acetonitrile; 30–35 min, 80–100% acetonitrile; 35–40 min, 100% acetonitrile.

wild type PECPS = wild type PECPS (Aquilaria sinensis, UniProt A0A385MEG6); assay: ITC binding to wild type PECPS; settings: mean ± SD (n = 3)
Method: (§1) ITC measurements of affinity (KD), stoichiometry (n) and apparent enthalpy change (ΔH°) were obtained using a Nano LV ITC calorimeter (TA Instruments). Samples for cell and injectant solutions were prepared in the same buffer (100 mM KPB, pH 7.5). All experiments were conducted at 37 °C with a stirring speed of 240 rpm and a sequence of 20 injections of 2.5 μL and 380 s delays between succeeding injections. The sample cell was filled with 47–85 μM protein solution (300 μl), while 1.09 mM 4-hydroxyphenylpropionyl-CoA (or 1.15 mM benzoyl-CoA) solution was placed in the syringe. The resulting data were processed with the standard NanoAnalyze software package (version 3.11.0), assuming the model of one type of binding site with an apparent stoichiometry close to 1:1. The first injection resulting in a heat change was disregarded in the later analysis. Titration experiments were performed in triplicate to show reproducibility. Control experiments confirmed that the heats of dilution caused by the reactant being titrated into buffer and the buffer into protein solution were negligible. The heats of dilution for the sample in the cell were subtracted from the final trace before integration with respect to time. The thermodynamic data obtained from the traces were averaged across three runs, and a standard deviation was calculated. Representative ITC thermograms and isotherm plots for experiments can be found in Supplementary Fig. 35.

PECPS N199F = PECPS N199F (Aquilaria sinensis, UniProt A0A385MEG6, N199F); assay: ITC binding to PECPS N199F mutant
Method: as §1, with “Representative ITC thermograms and isotherm plots for experiments can be found in Supplementary Fig. 35.” left out

PECPS F340W = PECPS F340W (Aquilaria sinensis, UniProt A0A385MEG6, F340W); assay: ITC binding to PECPS F340W mutant
Method: as §1
(§2) Plasmids expressing the PECPS mutants (A210E, F340W, N199L, and N199F) were generated by the Fast Mutagenesis System ([…] BIOTECH) according to the manufacturer’s instructions, using designed primers (Supplementary Table 5). The mutant enzymes were expressed, extracted, and purified by the same procedure as that for the wild type PECPS, and used in the enzyme assay and for crystallization.

PECPS N199L = PECPS N199L (Aquilaria sinensis, UniProt A0A385MEG6, N199L); assay: ITC binding to PECPS N199L mutant
Method: as §1, §2

PECPS A210E = PECPS A210E (Aquilaria sinensis, UniProt A0A385MEG6, A210E); assay: ITC binding to PECPS A210E mutant
Method: as §1, §2

[3] = tested on: PECPS protein expression in A. sinensis calli; settings: 150 mM NaCl-treated calli
Method: GAPDH was used as internal reference. d Western blot quantification of the relative expression levels of PECPS by ImageJ and normalization to the protein levels of GAPDH. Data represent the mean ± SD (n = 3). Statistical analysis was performed with unpaired two-tailed Student’s t-tests. Significance is shown with asterisks: ****p < 0.0001, ***p < 0.001, **p < 0.01. Exact p-values and source data are provided in the source data file. Total protein was extracted from 100 mg of calli using Plant Total Protein Extraction Reagent (Invent, USA) according to the manufacturer’s instructions. The protein expression levels of PECPS were analyzed by Western blotting with an anti-PECPS antibody prepared in rabbits.

[4] = tested on: PECPS expression in A. sinensis calli; settings: NaCl-treated calli
Method: Considering that PECs contain a phenylethyl moiety, 4-hydroxyphenylpropionyl-CoA, rather than p-coumaroyl-CoA, was deliberately selected as the starter substrate for the reaction with malonyl-CoA, a canonical chain extender for PKSs, and the recombinant PECPS. […] The construction of a C6–C5–C6 scaffold by coincubation of benzoyl-CoA, malonyl-CoA, and 4-hydroxyphenylpropionyl-CoA was attempted.

[5] = tested on: NaCl-stressed A. sinensis cells; assay: Substrate feeding to NaCl-stressed A. sinensis suspension cells, LC-MS; type: cell-based, Aquilaria sinensis; settings: NaCl-stressed A. sinensis cells fed with substrate
Method: To verify the aforementioned hypothesis that diarylpentanoid is the common precursor of PECs, substrate-feeding experiments were performed. First, a putative innate-substrate, 5-(4-hydroxyphenyl)-1-phenylpentane-1,3-dione (2), was fed to NaCl-stressed A. sinensis cells, and its metabolites were carefully analyzed by LC–MS. […] Next, the fluorine-containing nonphysiological substrate 5-(4-F-phenyl)-1-phenylpentane-1,3-dione (F-2) was fed to NaCl-stressed A. sinensis cells. As a result, 10 fluorinated PECs (C01–C10) were successfully obtained by LC–MS guided separation and purification (Fig. 2b and Supplementary Fig. 8), and the structures of C01–C06 were unequivocally determined by extensive spectroscopic techniques, including ^1H-NMR, ^13C-NMR and HRESI-MS (Supplementary Figs. 9–14 and Supplementary Tables 2 and 3). Unfortunately, attempts to elucidate the structures of compounds C07–C10 by NMR techniques were complicated by their small yields. […]
Robustly growing suspension cells (200 mL × 10) were treated with NaCl (final concentration 150 mM) and immediately fed the fluorine-labeled substrate F-2 (20 mg × 10). […] Fluorinated PECs could be detected from the crude residue by LC–MS (Supplementary Fig. 8). […]

[6] = Non-enzymatic conversion of oxidoagarochromone C in aqueous methanol, HPLC; type: physicochemical; settings: methanol aqueous solution, room temperature
Method: Figure 19. […]
HPLC chromatograms were recorded on an Agilent ZORBAXSB C18 column (250 mm × 4.6 mm, I.D., 5 μm) eluted with H2O and acetonitrile in an isocratic mode (0–30 min, 30% acetonitrile; flow rate 1.0 mL/min). Oxidoagarochromone C (S) was dissolved in 50% aqueous methanol and kept at room temperature. ATC-type PECs (1–5) converted from the substrate (S) via the non-enzymatic opening of the epoxy rings were readily apparent at 12 h and 36 h. Given that the structures of compounds 1-5 were tentatively identified by HRESI MS, the presence of methyl groups in compounds 2 and 5 is also possible on other hydroxyl groups formed by the opening of the epoxy rings, and the structures of 3 and 4 may be […]

Chain of PECPS F340W (A0A385MEG6 entry or part of it F340W): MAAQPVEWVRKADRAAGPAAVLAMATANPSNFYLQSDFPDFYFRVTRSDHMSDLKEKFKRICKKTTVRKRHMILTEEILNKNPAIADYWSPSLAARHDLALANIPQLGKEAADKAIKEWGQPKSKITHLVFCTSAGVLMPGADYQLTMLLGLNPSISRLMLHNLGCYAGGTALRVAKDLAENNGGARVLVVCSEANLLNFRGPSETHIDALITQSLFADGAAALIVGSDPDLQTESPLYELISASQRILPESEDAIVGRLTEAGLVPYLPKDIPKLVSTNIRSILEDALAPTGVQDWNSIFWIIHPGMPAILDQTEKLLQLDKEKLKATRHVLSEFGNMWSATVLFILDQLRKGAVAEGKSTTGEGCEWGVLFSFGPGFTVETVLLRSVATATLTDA
Chain of PECPS A210E (A0A385MEG6 entry or part of it A210E): as the sequence (A0A385MEG6 entry or part of it F340W) above, with A210E, W340F counted along it
Chain of PECPS N199L (A0A385MEG6 entry or part of it N199L): as the sequence (A0A385MEG6 entry or part of it F340W) above, with N199L, W340F counted along it
Chain of wild type PECPS (A0A385MEG6 entry or part of it): as the sequence (A0A385MEG6 entry or part of it F340W) above, with W340F counted along it
Chain of PECPS N199F (A0A385MEG6 entry or part of it N199F): as the sequence (A0A385MEG6 entry or part of it F340W) above, with N199F, W340F counted along it

2-(2-phenylethyl)chromone precursor synthase (PECPS), wild type, recombinant (enzyme)
stoichiometry N [1]: 2

O=C(CCc1ccccc1)CC(=O)c1ccccc1 [1,5-diphenylpentane-1,3-dione]
biotransformation in wild type N. benthamiana leaves [2]: converted to PECs

CC(C)(COP(=O)(O)OP(=O)(O)OC[C@H]1O[C@@H](n2cnc3c(N)ncnc32)[C@H](O)[C@@H]1OP(=O)(O)O)[C@@H](O)C(=O)NCCC(=O)NCCSC(=O)c1ccccc1O [2-hydroxybenzoyl-CoA]
acceptance as starter by PECPS to produce the C6–C5–C6 scaffold (PECPS): not accepted

CC(C)(COP(=O)(O)OP(=O)(O)OC[C@H]1O[C@@H](n2cnc3c(N)ncnc32)[C@H](O)[C@@H]1OP(=O)(O)O)[C@@H](O)C(=O)NCCC(=O)NCCSC(=O)c1cccc(O)c1 [3-hydroxybenzoyl-CoA]
acceptance as starter by PECPS to produce the C6–C5–C6 scaffold (PECPS): could accept

CC(C)(COP(=O)(O)OP(=O)(O)OC[C@H]1O[C@@H](n2cnc3c(N)ncnc32)[C@H](O)[C@@H]1OP(=O)(O)O)[C@@H](O)C(=O)NCCC(=O)NCCSC(=O)c1ccc(O)cc1 [4-hydroxybenzoyl-CoA]
acceptance as starter by PECPS to produce the C6–C5–C6 scaffold (PECPS): could accept

CC(C)(COP(=O)(O)OP(=O)(O)OC[C@H]1O[C@@H](n2cnc3c(N)ncnc32)[C@H](O)[C@@H]1OP(=O)(O)O)[C@@H](O)C(=O)NCCC(=O)NCCSC(=O)CCc1ccc(O)cc1 [4-hydroxyphenylpropionyl-CoA]
-TΔS (wild type PECPS; ITC): -3.748 ± 0.464 kcal/mol
n (stoichiometry) (wild type PECPS; ITC): 1.10±0.12
ΔH (wild type PECPS; ITC): -2.968 ± 0.425 kcal/mol
ΔS (wild type PECPS; ITC): 50.56 ± 6.28 J/molꞏK
Ka (wild type PECPS; ITC, listed as 4-hydorxyphenylpropionyl-CoA): 54.06 ± 4.14 mM⁻¹
Kd (wild type PECPS; Supplementary Table 4, ITC): 18.6 ± 1.37 µM
Kd (PECPS N199F): ~1000 µM
Kd (PECPS F340W): 12.4 ± 2.07 µM
-TΔS (PECPS F340W; ITC, mean ± SD (n = 3)): -5.251 ± 0.28 kcal/mol
Ka (PECPS F340W; ITC, mean ± SD (n = 3)): 82.07 ± 12.96 mM⁻¹
n (stoichiometry) (PECPS F340W; ITC, mean ± SD (n = 3)): 0.91±0.06
ΔG (PECPS F340W; ITC, mean ± SD (n = 3)): -6.969 ± 0.1 kcal/mol
ΔH (PECPS F340W; ITC, mean ± SD (n = 3)): -1.72 ± 0.177 kcal/mol
ΔS (PECPS F340W; ITC, mean ± SD (n = 3)): 70.83 ± 3.75 J/molꞏK
Kd (PECPS N199L): 120 ± 10.8 µM
Ka (PECPS N199L; ITC, mean ± SD (n = 3)): 8.35 ± 0.71 mM⁻¹
n (stoichiometry) (PECPS N199L; ITC, mean ± SD (n = 3)): 0.87±0.06
ΔG (PECPS N199L; ITC, mean ± SD (n = 3)): -5.564 ± 0.055 kcal/mol
ΔH (PECPS N199L; ITC, mean ± SD (n = 3)): -4.708 ± 0.402 kcal/mol
ΔS (PECPS N199L; ITC, mean ± SD (n = 3)): 11.50 ± 4.86 J/molꞏK
binding affinity, times weaker than that of wild type PECPS (PECPS N199L; N199L vs wild type PECPS, ITC): 6.5 times
Kd (PECPS A210E): 40.1 ± 4.52 µM
binding affinity, times lower than that of the wild-type (PECPS A210E; A210E vs wild type PECPS, ITC): 2.1 times
-TΔS (PECPS A210E; ITC, mean ± SD (n = 3)): -2.483 ± 0.397 kcal/mol
Ka (PECPS A210E; ITC, mean ± SD (n = 3)): 25.12 ± 2.98 mM⁻¹
n (stoichiometry) (PECPS A210E; ITC, mean ± SD (n = 3)): 0.99±0.02
ΔG (PECPS A210E; ITC, mean ± SD (n = 3)): -6.243 ± 0.0717 kcal/mol
ΔH (PECPS A210E; ITC, mean ± SD (n = 3)): -3.76 ± 0.323 kcal/mol
ΔS (PECPS A210E; ITC, mean ± SD (n = 3)): 33.49 ± 5.34 J/molꞏK

[Cl-].[Na+] [NaCl]
Relative expression level of PECPS protein (PECPS/GAPDH), Mean ([3]; 0 h): 0.2667
Relative expression level of PECPS protein (PECPS/GAPDH), Mean ([3]; 24 h): 0.4551
Relative expression level of PECPS protein (PECPS/GAPDH), Mean ([3]; 48 h): 1.257
Relative expression level of PECPS protein (PECPS/GAPDH), Mean ([3]; 72 h): 1.846
Relative expression level of PECPS protein (PECPS/GAPDH), Mean ([3]; 96 h): 1.18
Relative expression level of PECPS (qRT-PCR), Mean ([4]; 0 h): 0.3162
Relative expression level of PECPS (qRT-PCR), Mean ([4]; 24 h): 0.7432
Relative expression level of PECPS (qRT-PCR), Mean ([4]; 48 h): 2.33
Relative expression level of PECPS (qRT-PCR), Mean ([4]; 72 h): 6.264
Relative expression level of PECPS (qRT-PCR), Mean ([4]; 96 h): 1.556

CC(C)(COP(=O)(O)OP(=O)(O)OC[C@H]1O[C@@H](n2cnc3c(N)ncnc32)[C@H](O)[C@@H]1OP(=O)(O)O)[C@@H](O)C(=O)NCCC(=O)NCCSC(=O)c1ccccc1 [benzoyl-CoA]
Kd (wild type PECPS; ITC, 100 mM KPB pH 7.5, 37 °C): ~1000 µM

O=C(CCc1ccc(O)cc1)CC(=O)c1ccccc1 [compound 2, 5-(4-hydroxyphenyl)-1-phenylpentane-1,3-dione]
accumulation of PECs (P1–P5) in substrate-fed cells [5]: visibly increased
biotransformation in wild type N. benthamiana leaves [2]: converted to PECs

oxidoagarochromone C
products from the opening of the epoxy ring (non-enzymatic conversion to ATC-type PECs) [6]: readily detected
